Assay results taken from PMC1097768 (Nucleic Acids Research, 2005).

Target: mNdK (nucleoside diphosphate kinase) (Mycobacterium tuberculosis, UniProt P9WJH7)
Test: FRET molecular beacon nuclease assay with FP1T, Lineweaver-Burk analysis
Assay type: biochemical

Sequence of mNdK (nucleoside diphosphate kinase) (P9WJH7 whole entry): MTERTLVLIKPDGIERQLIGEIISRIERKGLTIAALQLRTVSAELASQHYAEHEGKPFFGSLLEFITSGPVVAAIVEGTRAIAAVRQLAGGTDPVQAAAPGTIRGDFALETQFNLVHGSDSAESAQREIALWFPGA

Nc1nc2c(ncn2[C@@H]2O[C@H](COP(=O)(O)OP(=O)(O)O)[C@@H](O)[C@H]2O)c(=O)[nH]1 [GDP]
Ki: ~1900 µM
